Test results taken from ChEMBL document CHEMBL1201862, “PubChem BioAssay data set” (2004).
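Assay format: 96-well plates, 48-hour exposure. GI50 marks 50% less growth.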 Active and inactive are the calls of the source. No stated cut-off is given here; in the data, active = GI50 up to about 1.1 µM and inactive = higher.

What was measured:
Experiment in all cases: DTP human tumour cell line panel, 48 h
HCT-15 = test system: HCT-15
HL-60 = test system: HL-60
HOP-62 = test system: HOP-62
K562 = test system: K562
KM12 = test system: KM12
M14 = test system: M14
NCI-H226 = test system: NCI-H226
OVCAR-4 = test system: OVCAR-4
OVCAR-5 = test system: OVCAR-5
OVCAR-8 = test system: OVCAR-8
SF-268 = test system: SF-268
SF-295 = test system: SF-295
SK-MEL-28 = test system: SK-MEL-28
TK-10 = test system: TK-10
U-251 = test system: U-251
UACC-257 = test system: UACC-257

| SMILES | GI50 (HCT-15) | GI50 (HL-60) | GI50 (HOP-62) | GI50 (K562) | GI50 (KM12) | GI50 (M14) | GI50 (NCI-H226) | GI50 (OVCAR-4) | GI50 (OVCAR-5) | GI50 (OVCAR-8) | GI50 (SF-268) | GI50 (SF-295) | GI50 (SK-MEL-28) | GI50 (TK-10) | GI50 (U-251) | GI50 (UACC-257) |
| --- | --- | --- | --- | --- | --- | --- | --- | --- | --- | --- | --- | --- | --- | --- | --- | --- |
| Cn1c2c([N+](=O)[O-])[se]nc2c(=O)n1-c1ccc([N+](=O)[O-])cc1 | 1.25 µM | 0.615 µM (active) | 3.97 µM (inactive) | 0.0664 µM (active) | 4.51 µM (inactive) | 1.29 µM (inactive) | 2.96 µM (inactive) | 0.447 µM (active) | 2.12 µM (inactive) | 1.02 µM (active) | 2.21 µM (inactive) | 3.13 µM (inactive) | 2.11 µM (inactive) | 7.55 µM (inactive) | 2.51 µM (inactive) | 1.96 µM (inactive) |
| Cn1c(=O)nc2n(-c3ccc(F)cc3)c3ccccc3nc-2c1=O | 16.4 µM | – | 46.7 µM (inactive) | 19.9 µM (inactive) | 24.7 µM (inactive) | 13.9 µM (inactive) | 36.7 µM (inactive) | 14.4 µM (inactive) | 24.3 µM (inactive) | 20.5 µM (inactive) | 28.2 µM (inactive) | 18.7 µM (inactive) | – | 26.5 µM (inactive) | 21.5 µM (inactive) | 14.4 µM (inactive) |
| NC(=O)c1ncn(C2OC(CO)C(O)C2O)c1NC(=S)NC(=O)c1ccccc1 (configuration not stated) | – | > 100 µM (inactive) | > 100 µM (inactive) | > 100 µM (inactive) | > 100 µM (inactive) | > 100 µM (inactive) | > 100 µM (inactive) | > 100 µM (inactive) | > 100 µM (inactive) | > 100 µM (inactive) | > 100 µM (inactive) | > 100 µM (inactive) | > 100 µM (inactive) | > 100 µM (inactive) | > 100 µM (inactive) | > 100 µM (inactive) |
| Nc1ncnc2c1ncn2COC/C=C/I | – | – | > 100 µM (inactive) | > 100 µM (inactive) | > 100 µM (inactive) | > 100 µM (inactive) | > 100 µM (inactive) | > 100 µM (inactive) | > 100 µM (inactive) | > 100 µM (inactive) | > 100 µM (inactive) | > 100 µM (inactive) | > 100 µM (inactive) | > 100 µM (inactive) | > 100 µM (inactive) | > 100 µM (inactive) |
| COc1cc(CCc2ccc(OCCN(C)C)cc2)cc(OC)c1OC | > 100 µM | 33.7 µM (inactive) | 84.1 µM (inactive) | 39.5 µM (inactive) | > 100 µM (inactive) | 68.4 µM (inactive) | 79.6 µM (inactive) | > 100 µM (inactive) | 33.8 µM (inactive) | > 100 µM (inactive) | > 100 µM (inactive) | > 100 µM (inactive) | > 100 µM (inactive) | 78.9 µM (inactive) | > 100 µM (inactive) | 72.4 µM (inactive) |
| CCN(CC)CCSc1nc2cccc([N+](=O)[O-])c2[nH]1 | > 100 µM | > 100 µM (inactive) | – | > 100 µM (inactive) | > 100 µM (inactive) | > 100 µM (inactive) | > 100 µM (inactive) | > 100 µM (inactive) | – | > 100 µM (inactive) | – | – | > 100 µM (inactive) | > 100 µM (inactive) | – | > 100 µM (inactive) |
| Cc1cc(C)nc(NS(=O)(=O)c2ccc(Nc3c4ccccc4nc4c(C(=O)N5CCN(CCOS(C)(=O)=O)CC5)ccc(Cl)c34)cc2)n1 | > 100 µM | > 100 µM (inactive) | > 100 µM (inactive) | > 100 µM (inactive) | > 100 µM (inactive) | 38 µM (inactive) | > 100 µM (inactive) | > 100 µM (inactive) | > 100 µM (inactive) | > 100 µM (inactive) | > 100 µM (inactive) | > 100 µM (inactive) | > 100 µM (inactive) | 54.1 µM (inactive) | > 100 µM (inactive) | > 100 µM (inactive) |
